Test results published in article PMC6026847, “Synthesis and Evaluation of the First Fluorescent Antagonists of the Human P2Y2 Receptor Based on AR-C118925” (Journal of Medicinal Chemistry, 2018).
Like-named read-outs stand apart in the source and are kept apart here.

Molecular target: T1, hP2Y2R (Homo sapiens, UniProt P41231)
T1 construct: The 1321N1 cells expressing wild-type P2Y2R (P2Y2R-1321N1) were gifted by Dr. Elizabeth Rosethorne; expressed in transfected cells; host or cells: 1321N1 astrocytoma cells (P2Y2R-1321N1), gifted
T1 sequence (P41231 whole entry): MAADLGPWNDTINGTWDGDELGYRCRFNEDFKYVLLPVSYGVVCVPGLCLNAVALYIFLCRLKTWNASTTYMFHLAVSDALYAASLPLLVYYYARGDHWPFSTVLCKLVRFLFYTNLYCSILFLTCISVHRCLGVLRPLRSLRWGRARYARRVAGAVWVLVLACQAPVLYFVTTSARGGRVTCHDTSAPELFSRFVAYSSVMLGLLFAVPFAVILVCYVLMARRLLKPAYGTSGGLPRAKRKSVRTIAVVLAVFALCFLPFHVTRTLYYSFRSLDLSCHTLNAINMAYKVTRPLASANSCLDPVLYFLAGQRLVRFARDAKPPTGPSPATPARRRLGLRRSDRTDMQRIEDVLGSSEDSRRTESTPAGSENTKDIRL
Test: Calcium-mobilization assay in P2Y2-1321N1 cells (antagonism of UTPγS)
Format: cell-based
Conditions: for hP2Y2 pKb / Kb: Gaddum equation; for hP2Y2R antagonist activity in words: calcium-mobilization assay

[1] = Table 2, shift of UTPγS concentration–response curve by a single antagonist concentration, mean ± SEM
[2] = Table 2, shift of UTPγS concentration–response curve by a single antagonist concentration, mean ± SEM, read-out: hP2Y2 pKb (converted)
[3] = Table 1, shift of UTPγS concentration–response curve by a single antagonist concentration, mean ± SEM, read-out: hP2Y2 pKb (converted)
[4] = Table 3, resolved enantiomers, shift of UTPγS curve, mean ± SEM, read-out: hP2Y2 pKb (converted)

| Structure (SMILES) | hP2Y2 pKb [1] | hP2Y2R antagonist activity in words | other results |
| --- | --- | --- | --- |
| Cn1cc(C2c3ccc(Cl)cc3C=Cc3sc(N4CCCCC4)nc32)c(=S)[nH]c1=O (centres unmarked) [Example 13, 5-(7-Chloro-2-(piperidin-1-yl)-4H-benzo[5,6]cyclohepta[1,2-d]thiazol-4-yl)-1-methyl-4-thioxo-3,4-dihydropyrimidin-2(1H)-one] | IA (3) (IA = inactive; i.e., less than a 50% inhibition of the response to 0.1 μM UTPγS in the presence of a 10 μM concentration of the compound (n = 3)) | inactive |  |
| Cn1cc(C2c3ccc(Cl)cc3C=Cc3sc(NCCc4ccccc4)nc32)c(=S)[nH]c1=O (centres unmarked) [Example 10, 5-(7-Chloro-2-(phenethylamino)-4H-benzo[5,6]cyclohepta[1,2-d]thiazol-4-yl)-1-methyl-4-thioxo-3,4-dihydropyrimidin-2(1H)-one] | IA (3) (IA = inactive; i.e., less than a 50% inhibition of the response to 0.1 μM UTPγS in the presence of a 10 μM concentration of the compound (n = 3)) | inactive |  |
| Cn1cc(C2c3ccc(Cl)cc3C=Cc3sc(NCCOc4ccccc4)nc32)c(=S)[nH]c1=O (centres unmarked) [Example 18, 5-(7-Chloro-2-((2-phenoxyethyl)amino)-4H-benzo[5,6]cyclohepta[1,2-d]thiazol-4-yl)-1-methyl-4-thioxo-3,4-dihydropyrimidin-2(1H)-one] | IA (3) (IA = inactive; i.e., less than a 50% inhibition of the response to 0.1 μM UTPγS in the presence of a 10 μM concentration of the compound (n = 3)) | inactive |  |
| Cn1cc(C2c3ccc(Cl)cc3C=Cc3sc(-c4ccccc4)nc32)c(=S)[nH]c1=O (centres unmarked) [Example 19, 5-(7-Chloro-2-phenyl-4H-benzo[5,6]cyclohepta[1,2-d]thiazol-4-yl)-1-methyl-4-thioxo-3,4-dihydropyrimidin-2(1H)-one] | IA (3) (IA = inactive; i.e., less than a 50% inhibition of the response to 0.1 μM UTPγS in the presence of a 10 μM concentration of the compound (n = 3)) | complete loss of affinity |  |
| Cn1cc(C2c3ccc(Cl)cc3C=Cc3sc(NCc4ccccc4)nc32)c(=S)[nH]c1=O (centres unmarked) [Example 9, 5-(2-(Benzylamino)-7-chloro-4H-benzo[5,6]cyclohepta[1,2-d]thiazol-4-yl)-1-methyl-4-thioxo-3,4-dihydropyrimidin-2(1H)-one] | IA (3) (IA = inactive; i.e., less than a 50% inhibition of the response to 0.1 μM UTPγS in the presence of a 10 μM concentration of the compound (n = 3)) | inactive |  |
| Cn1cc(C2c3ccc(Cl)cc3C=Cc3sc(N4CCOCC4)nc32)c(=S)[nH]c1=O (centres unmarked) [Example 12, 5-(7-Chloro-2-morpholino-4H-benzo[5,6]cyclohepta[1,2-d]thiazol-4-yl)-1-methyl-4-thioxo-3,4-dihydropyrimidin-2(1H)-one] | IA (3) (IA = inactive; i.e., less than a 50% inhibition of the response to 0.1 μM UTPγS in the presence of a 10 μM concentration of the compound (n = 3)) | inactive |  |
| CN1CCN(c2nc3c(s2)C=Cc2cc(Cl)ccc2C3c2cn(C)c(=O)[nH]c2=S)CC1 (centres unmarked) [Example 11, 5-(7-Chloro-2-(4-methylpiperazin-1-yl)-4H-benzo[5,6]cyclohepta[1,2-d]thiazol-4-yl)-1-methyl-4-thioxo-3,4-dihydropyrimidin-2(1H)-one] | IA (3) (IA = inactive; i.e., less than a 50% inhibition of the response to 0.1 μM UTPγS in the presence of a 10 μM concentration of the compound (n = 3)) | inactive |  |
| COCCNc1nc2c(s1)C=Cc1cc(Cl)ccc1C2c1cn(C)c(=O)[nH]c1=S (racemic) [Example 14, 5-(7-Chloro-2-((2-methoxyethyl)amino)-4H-benzo[5,6]cyclohepta[1,2-d]thiazol-4-yl)-1-methyl-4-thioxo-3,4-dihydropyrimidin-2(1H)-one] |  |  | Kb [2]: 251 nM |
| Cn1cc(C2c3ccc(Cl)cc3C=Cc3sc(Nc4ccccc4)nc32)c(=S)[nH]c1=O (centres unmarked) [Example 8, 5-(7-Chloro-2-(phenylamino)-4H-benzo[5,6]cyclohepta[1,2-d]thiazol-4-yl)-1-methyl-4-thioxo-3,4-dihydropyrimidin-2(1H)-one] | IA ^b (3) (IA = inactive; i.e., less than a 50% inhibition of the response to 0.1 μM UTPγS in the presence of a 10 μM concentration of the compound (n = 3)) | inactive |  |
| COCCCNc1nc2c(s1)C=Cc1cc(Cl)ccc1C2c1cn(C)c(=O)[nH]c1=S (centres unmarked) [Example 15, 5-(7-Chloro-2-((3-methoxypropyl)amino)-4H-benzo[5,6]cyclohepta[1,2-d]thiazol-4-yl)-1-methyl-4-thioxo-3,4-dihydropyrimidin-2(1H)-one] |  |  | Kb [2]: 275 nM |
| Cn1cc(C2c3ccc(Cl)cc3C=Cc3sc(N)nc32)c(=S)[nH]c1=O (centres unmarked) [Example 7, 5-(2-Amino-7-chloro-4H-benzo[5,6]cyclohepta[1,2-d]thiazol-4-yl)-1-methyl-4-thioxo-3,4-dihydropyrimidin-2(1H)-one] |  |  | Kb [2]: 275 nM |
| Cc1nc2c(s1)C=Cc1cc(Cl)ccc1C2c1cn(C)c(=O)[nH]c1=S (centres unmarked) [Example 6, 5-(7-Chloro-2-methyl-4H-benzo[5,6]cyclohepta[1,2-d]thiazol-4-yl)-1-methyl-4-thioxo-3,4-dihydropyrimidin-2(1H)-one] |  |  | Kb [3]: 1020 nM |
| Cc1nc2c(s1)C=Cc1cc(Cl)ccc1C2c1cn(Cc2nc(C(=O)Nc3nnn[nH]3)cs2)c(=O)[nH]c1=S (centres unmarked) [Example 5, 2-((5-(7-Chloro-2-methyl-4H-benzo[5,6]cyclohepta[1,2-d]thiazol-4-yl)-2-oxo-4-thioxo-3,4-dihydropyrimidin-1(2H)-yl)methyl)-N-(1H-tetrazol-5-yl)thiazole-4-carboxamide] |  |  | Kb [3]: 331 nM |
| Cc1ccc2c(c1)C=Cc1cc(C)ccc1C2c1cn(C)c(=O)[nH]c1=S [Example 4, 5-(2,8-Dimethyl-5H-dibenzo[a,d][7]annulen-5-yl)-1-methyl-4-thioxo-3,4-dihydropyrimidin-2(1H)-one] |  | inactive | hP2Y2 pKb (Table 1, shift of UTPγS concentration–response curve by a single antagonist concentration, mean ± SEM): IA ^b (IA = inactive; i.e., less than a 50% inhibition of the response to 0.1 μM UTPγS in the presence of a 10 μM concentration of the compound) |
| CCOCCNc1nc2c(s1)C=Cc1cc(Cl)ccc1C2c1cn(C)c(=O)[nH]c1=S (centres unmarked) [Example 16, 5-(7-Chloro-2-((2-ethoxyethyl)amino)-4H-benzo[5,6]cyclohepta[1,2-d]thiazol-4-yl)-1-methyl-4-thioxo-3,4-dihydropyrimidin-2(1H)-one] |  |  | Kb [2]: 186 nM |
| COCCNc1nc2c(s1)C=Cc1cc(Cl)ccc1C2c1cn(Cc2nc(C(=O)Nc3nnn[nH]3)cs2)c(=O)[nH]c1=S (centres unmarked) [Example 24, 2-((5-(7-Chloro-2-((2-methoxyethyl)amino)-4H-benzo[5,6]cyclohepta[1,2-d]thiazol-4-yl)-2-oxo-4-thioxo-3,4-dihydropyrimidin-1(2H)-yl)methyl)-N-(1H-tetrazol-5-yl)thiazole-4-carboxamide] |  |  | Kd (quoted in text for nonfluorescent antagonists, mean ± SEM, read-out: hP2Y2R affinity pKd (converted)): 95.5 nM |
| CC(C)OCCNc1nc2c(s1)C=Cc1cc(Cl)ccc1C2c1cn(C)c(=O)[nH]c1=S (centres unmarked) [Example 17, 5-(7-Chloro-2-((2-isopropoxyethyl)amino)-4H-benzo[5,6]cyclohepta[1,2-d]thiazol-4-yl)-1-methyl-4-thioxo-3,4-dihydropyrimidin-2(1H)-one] |  |  | Kb [2]: 324 nM |
| CCOCCNc1nc2c(s1)C=Cc1cc(Cl)ccc1C2c1cn(C)c(=O)[nH]c1=S (centres unmarked) [Example 23] |  |  | Kb [4]: 166 nM |
| COCCNc1nc2c(s1)C=Cc1cc(Cl)ccc1C2c1cn(C)c(=O)[nH]c1=S (centres unmarked) [Example 20] |  |  | Kb [4]: 234 nM |
| CCOCCNc1nc2c(s1)C=Cc1cc(Cl)ccc1C2c1cn(C)c(=O)[nH]c1=S (centres unmarked) [Example 22] |  |  | hP2Y2 pKb (Table 3, resolved enantiomers, shift of UTPγS curve, mean ± SEM): IA ^c (3) (IA = inactive; i.e., less than a 50% inhibition of the response to 0.1 μM UTPγS in the presence of a 10 μM concentration of the compound (n = 3)); Kb (Table 7, shift of agonist dose–response curve by a single antagonist concentration, mean ± SEM, read-out: pKb Ca2+ mobilization (converted)): > 10000 nM |
| COCCNc1nc2c(s1)C=Cc1cc(Cl)ccc1C2c1cn(C)c(=O)[nH]c1=S (centres unmarked) [Example 21] |  |  | Kb [4]: 1510 nM |
| Cc1ccc2c(c1)C=Cc1cc(C)ccc1C2c1cn(Cc2nc(C(=O)Nc3nnn[nH]3)cs2)c(=O)[nH]c1=S [Example 3, 2-((5-(2,8-Dimethyl-5H-dibenzo[a,d][7]annulen-5-yl)-2-oxo-4-thioxo-3,4-dihydropyrimidin-1(2H)-yl)methyl)-N-(1H-tetrazol-5-yl)thiazole-4-carboxamide] |  |  | Kb [3]: 77.6 nM |
